{
  "source": "patent US8921351B2",
  "about": "“Liquid crystalline phytosterol-glycerine complex for enhanced bioavailability and water dispersal” (Brandeis University, priority 2012, dated 2014)",
  "key": {"[1]": {"assay": "Saturation uptake of glycerine into melted non-esterified phytosterols", "type": "physicochemical", "description": "An experiment was conducted to determine the “saturation uptake” level during the chemical interaction between phytosterols and glycerine, The saturation uptake level can be either an adsorption phenomenon or a solubility phenomenon. First, the saturation level of glycerine uptake into non-esterified phytosterols was determined Mixed phytosterols that had been purified from soybean oil, and containing principally beta-sitosterol, campesterol and stigmasterol (CoroWise® FG-50), were heated, […] Increasing levels of glycerine (approximately 5, 10, 20 and 25 parts by weight) could be adsorbed or dissolved in 100 parts by weight of heated and melted free phytosterols. The evidence for adsorption (or solubility) was that a single melted phase of liquid was visible in heated glass test tubes containing these mixtures, whereas when larger amounts of glycerine were added, the glycerine formed a separate clear phase beneath the melted phytosterols. Upon cooling and solidification of the phytosterol samples containing between approximately 5 and 25 parts by weight of glycerine, the resulting solids were dry to the touch with no apparent free glycerine liquid. […]"}, "[2]": {"details": "cited from earlier work"}, "[3]": {"assay": "Mutual solubility of phytosterols with glycerine or propylene glycol at 150° C.", "type": "physicochemical", "excerpt": "It was discovered that a substantial amount of glycerine can be combined with phytosterol to form a complex (up to approximately 20% glycerine based on the weight of phytosterol). This was surprising given that glycerine is a low molecular weight hydrophilic substance whereas phytosterols (e.g., beta-sitosterol, campesterol and stigmasterol) are highly hydrophobic substances. […] The question arose, why can 20% glycerine dissolve into melted phytosterols when a small amount of phytosterol will not dissolve into glycerine. […] For example, equal weight percentages of these ingredients dissolve easily in one another."}},
  "data": [
    {"smiles": "OCC(O)CO", "note": "[glycerine]", "values": [
      {"measurement": "saturation level of glycerine relative to phytosterols", "setting": "[1]", "result": "~20", "unit": "% by weight"},
      {"measurement": "solubility limit (saturation level) of glycerine in melted phytosterols", "setting": "[1]; phytosterols melted at approximately 135° C.", "result": "about 25 g per 100 g phytosterols"}
    ]},
    {"smiles": "CCCCCO", "note": "[n-amyl alcohol]", "values": [
      {"measurement": "solubility limit in water", "setting": "[2]", "result": 2.7, "unit": "g per 100 g water"}
    ]},
    {"smiles": "CC(O)CO", "note": "(stereo not shown) [propylene glycol]", "values": [
      {"measurement": "miscibility of propylene glycol and phytosterols", "setting": "[3]", "result": "substantially miscible"}
    ]}
  ]
}
